According to patent US5871779A, “Treatment of arthropathies with vanadate compounds or analogues thereof” (Mount Sinai Hospital Corporation, priority 1996, dated 1999):
“And” between values parts separate entries of the source, which are not always exact repeats. Equal values may be shown once.

Experiments:
[1] = system: articular cartilage; assay: electron microscopy of articular cartilage of arthritic rats; format: in vivo, rat
Procedure: The synovium of rats from each group was examined by electron microscopy. Rats in each group were selected on Day 5 and Day 18 post arthritis onset to study joint morphology. Scanning and Transmission electron microscopy was performed on selected glutaraldehyde fixed joints. One ankle joint of each arthritic control and BMOV-treated rat was removed, critical point dried, and gold sputter-coated for scanning electron microscopy on Day 18 post arthritis onset to examine the trochlear surfaces. Conventional transmission electron microscopy was also performed on the articular cartilage of the trochlear surfaces of naive, arthritic control, and BMOV-treated animals using a Jeol 1200EX.

[2] = system: MDAY-D2 tumor; assay: BMOV loaded microspheres on tumor growth (Example 19); format: in vivo, mice; conditions: BMOV solution
Procedure: The effect of slow releasing microspheres loaded with 20% BNOV on tumor growth in mice was investigated as follows.
On day 6 the mice were divided into 6 groups as follows: group 1, empty control; group 3, tumor control; group 3, […]; group 4, injected IP with 20 mg palla beads containing 5 mg of BMOV; group 5, injected IP with 10 mg of BMOV beads on day 6 and day 9 respectively and; group 6, injected intramuscularly with 10 mg of BMOV beads on day 6 and day 9. On day 16, the mice were sacrificed and tumors were dissected.

[3] = system: tumor growth; assay: different concentrations of BMOV on tumor growth (Example 23); format: in vivo, mice; design: Tumour weight / Tumour weight, Means: unit not given here; conditions: for Tumour weight: individual mice
Procedure: In this experiment we determined the optimum concentration for inhibition of tumor growth as follows.
Forty mice were subcutaneously injected with tumor cells (10×10^6/ml)on day 1. On day 5, the mice were divided into five groups as follows: Group 1; control, PBS injected; Group 2: 0.1% BMOV injected; Group 3: 0.25% BMOV injected; Group 4: 0.5% BMOV injected and; Group 5: 0.75% BMOV injected. All the mice were injected (I.P.) with 2 mg NAC before injection of BMOV. […] The effective concentrations of BMOV are from 0.1% to 0.75%.

[4] = system: MDAY-D2 cells; assay: viability of MDAY-D2 cells; format: cell-based, mouse; conditions: 0-50 μM, 48 hours
Procedure: Fos and jun activity are also required for cellular proliferation in many tumor cell lines. Accordingly, the effect of orthovanadate on adherent cells and cell suspensions were examined. MDAY-D2 (a mouse lymphoid cell line grown in suspension) and HTB14 cells (an adherent human primary astrocytoma cell line) were incubated in media containing 0-50 μM orthovanadate for 48 hours. The cells were harvested and the number of viable cells determined.
Three different forms of vanadyl compounds were examined for their effect on viability of cancer cell lines. MDAY-D2 cells were incubated in media containing 0-50 μM orthovanadate, vanadyl sulphate, or vanadyl hydroperoxide for 48 hours. The cells were harvested and the number of viable cells determined. […] Although there were slight differences in sensitivity, the overall cell death was similar.

[5] = system: MDAY-D2 tumor; assay: MDAY-D2 tumor growth in vivo, orthovanadate s.c. (Example 6A); design: species or system mice; conditions: 10 mg/ml, 50 μl daily s.c., day 14
Text: (§1) In order to examine the ability of vanadyl compounds to reduce tumor formation, growth and metastases, a specific animal model which allows investigation of all of these processes in the same animal was chosen. This model involves the injection of a metastatic haematopoietic cell line, MDAY-D2, into mice subcutaneously. These cells form a tumor at the site of injection and its size can be easily determined. In addition, these cells metastasize to the liver and metastases can be detected histologically after day 17 to 19. This model provides a very sensitive and reproducible approach to investigate the effect of vanadyl compounds on tumor growth and metastases.
Using the animal model described above, the effect of subcutaneous administration of orthovanadate on tumor growth was investigated. A total of 15 mice were injected subcutaneously with 1×10^5 MDAY-D2 cells on Day 1. On Day 5, small tumors could be observed at the site of injection. Five mice were injected daily with 50 μl of water alone and 10 mice were injected daily with water containing 10 mg/ml orthovanadate. On day 14, the mice were sacrificed. The tumors were removed from all the animals, photographed, and weighed. FIG. 11 compares sizes of tumors from two untreated and two orthovanadate treated mice. […] In animals treated with water alone, four mice had tumors weighing between 1.18 and 1.68 gms.

[6] = system: metastases of MDAY-D2 cells; assay: liver metastases of MDAY-D2 cells (histology); format: in vivo, mice; conditions: 500 μg/day; preliminary results
Text: as §1
The metastatic liver was obtained from an animal 24 days following the administration MDAY-D2 cells. The nodules are quite numerous and large.
Livers were removed from animals treated as described above and prepared for histological examination. FIG. 16 compares liver sections from untreated (C), orthovanadate (VO)(500 μg/day) and vanadyl sulphate (VS)(500 μg/day) treated animals. Nodules are identified with an arrow.

[7] = system: A431; assay: MTT cytotoxicity assay, A431; format: cell-based, human; conditions: A431, 72 hours
Procedure: The relative cytotoxicity of various compounds on tumor cell lines was investigated as follows. Cytotoxicity was measured by the MTT microculture tetrazolium colorimetric assay for all cell lines. The relative cytotoxicity of Na3 VO4 and VOSO4 was investigated using the following tumor cell lines: P388(WT) murine leukemia, P388 (ADR) murine leukemia, Lewis murine lung, MCF7 (WT) human breast, […] human lung, K562 human erythroleukemia, A431 human epidermal, LS180 human colon and SK-OV-3 human ovarian. The relative cytotoxicity of doxorubicin, Na3 VO4 and VOSO4 was investigated using the following tumor cell lines: P388(WT) murine leukemia, P388 (ADR) murine leukemia, MCF7(WT) human breast and MCF7 (ADR) human breast. The relative cytotoxicity of BMOV, BEOV and naglivan was investigated using the following tumor cell lines: P388(WT) murine leukemia, P388 (ADR) murine leukemia, Lewis murine lung, H460 human lung, K562 human erythroleukemia, and SK-OV-3 human ovarian.
The cells were plated (number of cells/well was different from cell line to cell depending on the dividing rate) in a 96-well microculture plate 24 hours prior to the delivery of the vanadium compounds. Serial concentrations of solutions of the test compounds (0.05-100 μM) were delivered to the corresponding wells. […] The absorbance of each well was read with a Titertek Multiskan (310C) spectrophotometer at 570 nm. […]

SMILES | trochlear surface by scanning electron micrograph ([1]; Day 18) | articular cartilage by transmission electron micrograph ([1]; rat, in vivo) | cartilage damage of joints ([1]; scanning and transmission electron micrographs) | Tumour weight, Average [2] | Tumour weight ([2]; individual mice) | Tumour weight ([3]; 0.1% BMOV + 2 mg NAC i.p.) | Tumour weight, Means ([3]; 0.1% BMOV + NAC) | Tumour weight ([3]; 0.25% BMOV + 2 mg NAC i.p.) | Tumour weight, Means ([3]; 0.25% BMOV + NAC) | Tumour weight ([3]; 0.5% BMOV + 2 mg NAC i.p.) | Tumour weight, Means ([3]; 0.5% BMOV + NAC) | Tumour weight ([3]; 0.75% BMOV + 2 mg NAC i.p.) | Tumour weight, Means ([3]; 0.75% BMOV + NAC) | death of animal ([3]; 0.75% BMOV + NAC, mouse 8) | toxicity to MDAY-D2 cells [4] | killing of MDAY-D2 cells ([4]; three forms compared) | detectable tumors [5] | tumor size ([5]; five mice) | metastases in liver [6] | IC50 [7] [µM]
Cc1occc(=O)c1[O-].Cc1occc(=O)c1[O-].[O]=[V+2] [BMOV, bis(methylmaltolato) oxovanadium (IV)] | normal trochlear surface | indistinguishable from the naive animal | little cartilage damage and intact cartilage | 0.15 | 0.4 and 0.12 and 0.07 and 0.04 | 0.44 and 0.40 and 0.48 and 0.62 and 0.54 and 0.84 and 0.18 and 0.87 | 0.55 | 0.14 and 0.23 and 0.73 and 0.04 and 0.21 and 0 | 0.18 | 0.40 and 0.20 and 0.07 and 0.17 and 0.06 and 0 | 0.22 | 0.07 and 0.16 and 0.08 and 0.21 and 0.13 and 0 | 0.09 | died | – | – | – | – | – | –
[Na+].[Na+].[Na+].[O]=[V]([O-])([O-])[O-] [orthovanadate, sodium orthovanadate] | – | – | – | – | – | – | – | – | – | – | – | – | – | – | toxic | equally effective | 2 mice did not have detectable tumors | less than 0.16 gms | did not have detectable levels of metastases | 7.6
